Data taken from patent US20090029968A1, “QUINAZOLINE DERIVATIVES USED AS INHIBITORS OF ERBB TYROSINE KINASE” (priority 2005, published 2009).

What was measured:
erbB2 tyrosine kinase = target: T1, erbB2 tyrosine kinase (Homo sapiens, UniProt P04626); assay: Test (a) protein tyrosine kinase phosphorylation assay, erbB2; type: biochemical; conditions: recombinant intracellular fragment, ATP at Km; read-out: IC50 Test (a): Inhibition of erbB2 tyrosine kinase protein phosphorylation
T1 construct: Recombinant intracellular fragments of EGFR, erbB2 and erbB4; made in house; host or cells: baculovirus/Sf21 insect cells (cleared lysate used)
Method: (§1) a) Protein Tyrosine Kinase phosphorylation Assays
(§2) This test measures the ability of a test compound to inhibit the phosphorylation of a tyrosine containing polypeptide substrate by EGFR, erbB2 and erbB4 tyrosine kinase enzyme.
(§3) Recombinant intracellular fragments of EGFR, erbB2 and erbB4 (accession numbers X00588, X03363 and L07868 respectively) were cloned and expressed in the baculovirus/Sf21 system. […]
(§4) Constitutive kinase activity of these recombinant proteins was determined by their ability to phosphorylate a synthetic peptide (made up of a random co-polymer of Glutamic Acid, Alanine and Tyrosine in the ratio of 6:3:1). […]
(§5) The immobilised phospho-peptide product of the reaction was detected by immunological methods. […] After further washing, HRP activity in each well of the plate was measured […] using 22′-Azino-di-[3-ethylbenzthiazoline sulfonate (6)] diammonium salt crystals (ABTS™ from Roche) as a substrate.
(§6) Quantification of colour development and thus enzyme activity was achieved by the measurement of absorbance at 405 nm on a Molecular Devices ThermoMax microplate reader. Kinase inhibition for a given compound was expressed as an IC50 value. […] The range of phosphorylation was calculated from the positive (vehicle plus ATP) and negative (vehicle minus ATP) control values.

EGFR tyrosine kinase = target: T2, EGFR tyrosine kinase (Homo sapiens, UniProt P00533); assay: Test (a) protein tyrosine kinase phosphorylation assay, EGFR; type: biochemical; conditions: recombinant intracellular fragment, ATP at Km; read-out: IC50 Test (a): Inhibition of EGFR tyrosine kinase protein phosphorylation
T2 construct: Recombinant intracellular fragments of EGFR, erbB2 and erbB4; made in house; host or cells: baculovirus/Sf21 insect cells (cleared lysate used)
Method: as §1, §2, §3, §4, §5, §6

BT474C cells = assay: Test (e) BT474C cell proliferation assay; type: cell-based; conditions: Homo sapiens, 96 h, four-day MTS endpoint, read-out: IC50 Test (e): Inhibition of proliferation of BT474C cells
Description: The BT-474 tumour cell line (human mammary carcinoma) was obtained from Dr Baselga (at Laboratorio Recerca Oncologica, Paseo Vall D'Hebron 119-129, Barcelona 08035, Spain). This cell line was subcloned and a certain population (hereinafter referred to as “BT474C”) was obtained.
e) BT474C Cell Proliferation Assay
BT474C cells are a sub-cloned population of in vivo competent cells, as discussed above.
The BT474C assay is a MTS (3-(4,5-dimethylthiazol-2-yl)-5-(3-carboxymethoxyphenyl)-2-(4-sulfophenyl)-2H-tetrazolium, inner salt—Promega G1111) endpoint-based cell proliferation assay, which measures the ability of a test compound to inhibit the proliferation of cells over a four-day period. […] Cell density is measured using a haemocytometer and viability is calculated using Trypan Blue solution before being further diluted in Assay Medium and seeded at a density of 1×10^4 cells per well (in 100 ul) into clear bottomed 96 well plates (Costar 3598). […] The plate is read at 490 nm on a spectrophotometer.
Assay plates are left at 37° C. for 4 days and then treated with MTS solution (as above), which is converted to a soluble formazan product by active cells. After incubating the plates for 2 hours the reaction is stopped by the addition of 10% SDS (Sodium dodecyl sulphate) and the plates are read at 490 nm on a spectrophotometer giving absorbance values relative to the concentration of converted dye. […]

T1 sequence (P04626 676-1255 limits assumed): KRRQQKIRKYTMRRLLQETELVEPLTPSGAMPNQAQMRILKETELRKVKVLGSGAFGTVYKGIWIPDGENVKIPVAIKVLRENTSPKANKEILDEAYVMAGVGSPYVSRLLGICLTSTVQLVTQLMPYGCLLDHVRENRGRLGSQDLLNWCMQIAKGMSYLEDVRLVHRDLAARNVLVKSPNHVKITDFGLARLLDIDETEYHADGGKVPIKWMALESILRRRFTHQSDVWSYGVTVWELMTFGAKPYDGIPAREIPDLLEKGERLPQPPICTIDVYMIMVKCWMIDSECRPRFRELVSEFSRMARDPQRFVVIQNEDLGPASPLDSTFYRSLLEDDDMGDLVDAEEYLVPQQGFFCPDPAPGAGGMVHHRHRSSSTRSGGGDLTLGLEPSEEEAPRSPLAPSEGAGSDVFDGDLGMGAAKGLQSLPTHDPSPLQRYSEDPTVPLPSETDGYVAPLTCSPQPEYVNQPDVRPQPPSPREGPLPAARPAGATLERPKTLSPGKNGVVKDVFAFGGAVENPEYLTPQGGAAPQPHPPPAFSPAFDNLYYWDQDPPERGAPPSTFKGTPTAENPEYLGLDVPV
T2 sequence (P00533 669-1210 limits assumed): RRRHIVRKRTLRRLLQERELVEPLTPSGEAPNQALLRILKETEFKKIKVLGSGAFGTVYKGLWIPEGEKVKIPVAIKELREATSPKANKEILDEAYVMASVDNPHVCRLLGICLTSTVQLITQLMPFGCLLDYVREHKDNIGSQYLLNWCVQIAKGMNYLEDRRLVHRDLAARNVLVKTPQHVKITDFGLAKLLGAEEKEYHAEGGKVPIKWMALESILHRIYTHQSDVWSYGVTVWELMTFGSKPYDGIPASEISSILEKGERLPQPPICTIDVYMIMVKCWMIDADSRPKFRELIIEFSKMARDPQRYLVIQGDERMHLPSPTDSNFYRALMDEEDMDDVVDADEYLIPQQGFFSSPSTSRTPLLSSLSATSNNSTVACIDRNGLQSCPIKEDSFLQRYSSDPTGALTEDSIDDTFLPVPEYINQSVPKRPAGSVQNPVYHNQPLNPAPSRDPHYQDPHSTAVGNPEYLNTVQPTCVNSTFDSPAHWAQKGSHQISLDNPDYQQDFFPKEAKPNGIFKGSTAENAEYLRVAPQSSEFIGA

Structure (SMILES) | IC50 (erbB2 tyrosine kinase) | IC50 (EGFR tyrosine kinase) | IC50 (BT474C cells)
C[C@@H](Oc1cccc2ncnc(Nc3ccc(C(=O)N4CCCCC4)c(Cl)c3)c12)C(=O)N(C)CCO [Example 2, (2R)-2-[(4-{[3-chloro-4-(piperidin-1-ylcarbonyl)phenyl]amino}quinazolin-5-yl)oxy]-N-(2-hydroxyethyl)-N-methylpropanamide] | 22 nM | 869 nM | 857 nM
C[C@@H](Oc1cccc2ncnc(Nc3ccc(C(=O)N4CCCCCC4)c(Cl)c3)c12)C(=O)N(C)CCO [Example 1, (2R)-2-[(4-{[4-(azepan-1-ylcarbonyl)-3-chlorophenyl]amino}quinazolin-5-yl)oxy]-N-(2-hydroxyethyl)-N-methylpropanamide] | 15 nM | 333 nM | 179 nM
